Several values for one entry are separate records, joined by “and”; a condition that tells them apart may be missing. Equal values may be shown once.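 Grown in 96-well plates, cells were treated for 48 hours with each compound at five concentrations. Insufficient inhibition: endpoint recorded as highest concentration tested. At the GI50, growth is halved. TGI: total growth inhibition.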 Where a SMILES comes first, the peptide text is derived from it. [ ]: non-standard residue; d: D form. The star is where a group is joined. NMeF = CN[C@@H](Cc1ccccc1)C(=O)O; NMeV = CN[C@H](C(=O)O)C(C)C; Boc = CC(C)(C)OC(=O)*; OBn = c1ccc(CO*)cc1
Assays:
Test in all cases: NCI tumour cell line growth inhibition, 48 h
SK-MEL-5 melanoma = test system: SK-MEL-5 melanoma
M19-MEL melanoma = test system: M19-MEL melanoma
OVCAR-8 ovarian = test system: OVCAR-8 ovarian
NCI-H226 lung = test system: NCI-H226 lung
HOP-92 NSCLC = test system: HOP-92 NSCLC
DLD-1 colon = test system: DLD-1 colon
HL-60(TB) leukemia = test system: HL-60(TB) leukemia
OVCAR-3 ovarian = test system: OVCAR-3 ovarian
NCI-H23 lung = test system: NCI-H23 lung
HOP-62 NSCLC = test system: HOP-62 NSCLC

SMILES | TGI (SK-MEL-5 melanoma) | TGI (M19-MEL melanoma) | TGI (OVCAR-8 ovarian) [µM] | TGI (NCI-H226 lung) | TGI (HOP-92 NSCLC) | TGI (DLD-1 colon) | TGI (HL-60(TB) leukemia) | TGI (OVCAR-3 ovarian) | TGI (NCI-H23 lung) | TGI (HOP-62 NSCLC) | GI50 (SK-MEL-5 melanoma) | GI50 (M19-MEL melanoma) | GI50 (OVCAR-8 ovarian) | GI50 (NCI-H226 lung) | GI50 (HOP-92 NSCLC) [µM] | GI50 (DLD-1 colon) [µM] | GI50 (HL-60(TB) leukemia) [µM] | GI50 (OVCAR-3 ovarian) [µM] | GI50 (NCI-H23 lung) | GI50 (HOP-62 NSCLC) [µM]
CCCCCCCCCCCCCCCCCC(=O)OCC(C[As](=O)(O)O)OC(=O)CCCCCCCCCCCCCCCCC (centres undefined) | > 100 µM | > 100 µM | > 100 | 70.4 µM | 40.4 µM | > 100 µM | > 100 µM | > 100 µM | > 100 µM | 85.2 µM | – | – | – | – | – | – | – | – | – | –
CC1=NC(C(C)C)C(=O)O1 (centres undefined) | > 100 µM | > 100 µM | > 100 | > 100 µM | > 100 µM | > 100 µM | > 100 µM | > 100 µM | > 100 µM | > 100 µM | – | – | – | – | – | – | – | – | – | –
CN(C)C1=NC2=S(SC(Nc3ccccc3)=N2)S1 (centres undefined) | 28.8 µM | > 100 µM | > 100 | > 100 µM | 59.8 µM | > 100 µM | > 100 µM | – | > 100 µM | 67.7 µM | – | – | – | – | – | – | – | – | – | –
c1ccc(CN2CCCCC(Sc3ccccc3)CC2)cc1 (centres undefined) | 34.1 µM | 12.9 µM | > 100 | 85.2 µM | 78.8 µM | 41.7 µM | 46.3 µM | > 100 µM | 64.3 µM | > 100 µM | – | – | – | – | – | – | – | – | – | –
CCC[CH2][Sn]1([CH2]CCC)[O]CC(CN2CCOCC2)[O]1 (centres undefined) | 18.2 µM | 17.3 µM | 10.8 | 34.8 µM | 14 µM | 16.8 µM | 3.62 µM | 8.23 µM | 6.13 µM | 20.4 µM | 5.4 µM | 3.99 µM | 3.35 µM | 20.2 µM | 3.7 | 4.46 | 1.17 | 2.13 | 2.41 µM | 8.8
COC(=O)C1=C(c2ccc3c(c2)OCO3)OC(c2ccc3c(c2)OCO3)C1 (centres undefined) | > 100 µM | > 100 µM | > 100 | > 100 µM | > 100 µM | > 100 µM | > 100 µM | > 100 µM | > 100 µM | > 100 µM | – | – | – | – | – | – | – | – | – | –
Brc1ccccc1C=NC12CC3CC(CC(C3)C1)C2 | > 100 µM | > 100 µM | > 100 | > 100 µM | > 100 µM | > 100 µM | 4.37 µM | > 100 µM | > 100 µM | > 100 µM | – | – | – | – | – | – | – | – | – | –
COC(=O)C1=C(CS(=O)c2ccc([N+](=O)[O-])cc2[N+](=O)[O-])ON(C)C1c1ccccc1 (centres undefined) | > 100 µM | > 100 µM | > 100 | > 100 µM | – | > 100 µM | 24.2 µM | > 100 µM | > 100 µM | > 100 µM | – | – | – | – | – | – | – | – | – | –
CCCCCNC(=O)c1c(O)[nH]c(=S)[nH]c1=O | > 100 µM | > 100 µM | > 100 | > 100 µM | > 100 µM | – | > 100 µM | > 100 µM | > 100 µM | > 100 µM | – | – | – | – | – | – | – | – | – | –
OCC1OC(n2cnc3c2NC=NC[C@H]3O)CC1O (some centres undefined) | 499 µM and > 588 µM | 460 µM and > 588 µM | 500 | 500 µM and > 588 µM | 454 µM and > 588 µM | 500 µM and > 588 µM | 465 µM and > 588 µM | 500 µM and > 588 µM | 500 µM and > 588 µM | 471 µM and > 588 µM | > 588 µM | > 588 µM | – | > 588 µM | > 588 | > 588 | 219 | > 588 | > 588 µM | > 588
O=C1OC(c2ccccc2)=N/C1=C\c1cc(Cl)ccc1Cl | > 100 µM | > 100 µM | – | – | > 100 µM | > 100 µM | 35.3 µM | – | > 100 µM | > 100 µM | – | – | – | – | – | – | – | – | – | –
CSc1nc(C)c(Br)c(=O)n1C1OC(COC(C)=O)C(OC(C)=O)C(OC(C)=O)C1OC(C)=O (centres undefined) | > 100 µM and 50.7 µM | > 100 µM | > 100 | > 100 µM | 54.8 µM and 58.1 µM | > 100 µM | > 100 µM | > 100 µM | > 100 µM | 72.3 µM and 43.9 µM | > 100 µM and 19.2 µM | > 100 µM and 44.6 µM | > 100 µM and 36 µM | > 100 µM and 36 µM | – | – | – | – | > 100 µM and 47 µM | –
NC(=O)CCC(NC(=O)Cc1ccccc1)C(=O)O (centres undefined) (tested in a mixture with another compound) | > 8130 µM | > 8130 µM | > 8130 | – | > 8130 µM | > 8130 µM | > 8130 µM | > 8130 µM | > 8130 µM | > 8130 µM | – | – | – | – | – | – | – | – | – | –
O=C1c2cc([N+](=O)[O-])cc3cc([N+](=O)[O-])cc(c23)C(=O)N1CCCNCCNCCCN1C(=O)c2cc([N+](=O)[O-])cc3cc([N+](=O)[O-])cc(c23)C1=O | 1.97 µM | 0.752 µM | 3.39 | 2.57 µM | 1.82 µM | 3.24 µM | 1.13 µM | 2.35 µM | 2.41 µM | 3.07 µM | – | – | – | – | – | – | – | – | – | –
CC(C)[C@@H](C(=O)N1CCC[C@H]1C(=O)OCc1ccccc1)N(C)C(=O)[C@H](C(C)C)N(C)C(=O)[C@H](Cc1ccccc1)N(C)C(=O)[C@H](NC(=O)OC(C)(C)C)C(C)C (Boc-[dV][NMeF][NMeV][NMeV]P-OBn) | > 100 µM | > 100 µM | > 100 | > 100 µM | > 100 µM | > 100 µM | > 100 µM | > 100 µM | > 50 µM | > 100 µM | – | – | – | – | 20.9 | – | 21.9 | > 100 | – | –
COC(=O)CS(=O)c1ccccc1 (centres undefined) | > 100 µM | > 100 µM | 87.9 | – | > 100 µM | > 100 µM | 37 µM | > 100 µM | > 100 µM | 83.3 µM | – | – | – | – | – | – | – | – | – | –

Source: PubChem BioAssay (NCI)
